Experimental findings from publication PMC11233931, “Remodeling tumor‐associated macrophage for anti‐cancer effects by rational design of irreversible inhibition of mitogen‐activated protein kinase‐activated protein kinase 2” (MedComm, 2024) are described below.

The inhibition is the change of the read-out against control, counted positive when it falls.

Experiment in all cases: Eurofins kinase selectivity profile against 380 other human recombinant kinases (Table S2)
What all share (format): biochemical

In experiment [1] the target is T1, 380 human recombinant protein kinases (Homo sapiens, UniProt Q9UHD2).
T1 construct: purchased Eurofins (Celle Lévescault)
T1 sequence (Q9UHD2 1-729): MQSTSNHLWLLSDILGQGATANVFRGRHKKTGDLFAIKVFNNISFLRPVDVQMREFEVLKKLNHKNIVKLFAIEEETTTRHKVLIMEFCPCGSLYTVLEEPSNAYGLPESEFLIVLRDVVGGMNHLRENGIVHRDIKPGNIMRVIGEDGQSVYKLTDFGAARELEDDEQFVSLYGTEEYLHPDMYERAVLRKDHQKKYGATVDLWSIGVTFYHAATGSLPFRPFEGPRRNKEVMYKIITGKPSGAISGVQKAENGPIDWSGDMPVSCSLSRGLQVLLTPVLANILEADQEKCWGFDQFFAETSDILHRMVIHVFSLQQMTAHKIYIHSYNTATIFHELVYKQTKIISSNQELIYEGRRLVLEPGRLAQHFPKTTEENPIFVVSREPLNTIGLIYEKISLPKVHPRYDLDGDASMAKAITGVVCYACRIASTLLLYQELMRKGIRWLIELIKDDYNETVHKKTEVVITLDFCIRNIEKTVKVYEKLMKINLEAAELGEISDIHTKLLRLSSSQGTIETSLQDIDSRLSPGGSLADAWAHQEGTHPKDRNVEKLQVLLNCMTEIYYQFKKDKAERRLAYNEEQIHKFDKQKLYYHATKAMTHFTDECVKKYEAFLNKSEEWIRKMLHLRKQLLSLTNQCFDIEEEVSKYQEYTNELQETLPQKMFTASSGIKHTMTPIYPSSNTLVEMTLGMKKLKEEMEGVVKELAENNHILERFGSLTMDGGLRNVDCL
The conditions noted are these: TBK1(h), read-out: Inhibition rate (%). The method in brief:
(§1)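 To gauge specificity for MK2, the compound is profiled externally at various concentrations on recombinant human kinases, 380 in total.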

In experiment [2] the target is T2, 380 human recombinant protein kinases (Homo sapiens, UniProt P78368).
T2 construct: purchased Eurofins (Celle Lévescault)
T2 sequence (P78368 whole entry): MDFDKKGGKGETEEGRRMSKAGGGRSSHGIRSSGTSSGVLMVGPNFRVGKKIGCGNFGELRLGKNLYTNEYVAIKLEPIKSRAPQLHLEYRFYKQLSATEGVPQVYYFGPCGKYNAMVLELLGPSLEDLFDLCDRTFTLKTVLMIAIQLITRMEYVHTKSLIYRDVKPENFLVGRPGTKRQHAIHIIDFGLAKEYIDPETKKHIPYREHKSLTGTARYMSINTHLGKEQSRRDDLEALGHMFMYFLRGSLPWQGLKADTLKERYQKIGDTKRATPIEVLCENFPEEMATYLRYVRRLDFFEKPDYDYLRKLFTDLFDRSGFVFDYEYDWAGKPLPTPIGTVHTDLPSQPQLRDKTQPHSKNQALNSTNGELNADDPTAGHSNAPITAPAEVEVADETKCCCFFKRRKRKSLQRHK
Particulars: CK1γ2(h), read-out: Inhibition rate. The method in brief:
as §1

Experiment [3] deals with T3, 380 human recombinant protein kinases (Homo sapiens, UniProt Q96PF2).
T3 construct: purchased Eurofins (Celle Lévescault)
T3 sequence (Q96PF2 1-358): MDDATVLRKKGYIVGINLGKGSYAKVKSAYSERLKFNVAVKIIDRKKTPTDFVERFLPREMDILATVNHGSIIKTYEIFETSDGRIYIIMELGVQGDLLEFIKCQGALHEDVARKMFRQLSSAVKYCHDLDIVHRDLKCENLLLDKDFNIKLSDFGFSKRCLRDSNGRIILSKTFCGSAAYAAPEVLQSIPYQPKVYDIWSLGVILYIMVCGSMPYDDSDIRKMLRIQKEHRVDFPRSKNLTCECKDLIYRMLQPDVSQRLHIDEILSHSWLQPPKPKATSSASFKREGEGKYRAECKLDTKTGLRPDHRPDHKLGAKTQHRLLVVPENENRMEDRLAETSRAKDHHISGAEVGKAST
Particulars: TSSK2(h), read-out: Inhibition rate (%). Put shortly: as §1

In experiment [4] the target is T4, 380 human recombinant protein kinases (Homo sapiens, UniProt Q96GD4).
T4 construct: purchased Eurofins (Celle Lévescault)
T4 sequence (Q96GD4 whole entry): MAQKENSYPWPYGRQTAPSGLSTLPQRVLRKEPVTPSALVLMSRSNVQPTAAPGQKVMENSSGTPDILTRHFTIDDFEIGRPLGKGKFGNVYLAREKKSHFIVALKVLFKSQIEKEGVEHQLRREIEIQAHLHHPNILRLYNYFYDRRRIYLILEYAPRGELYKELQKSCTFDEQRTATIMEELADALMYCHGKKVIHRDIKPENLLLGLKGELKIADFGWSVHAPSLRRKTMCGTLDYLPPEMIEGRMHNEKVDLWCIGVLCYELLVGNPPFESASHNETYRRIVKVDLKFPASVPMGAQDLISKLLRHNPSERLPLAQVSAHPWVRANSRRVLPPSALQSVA
The conditions noted are these: Aurora-B(h), read-out: Inhibition rate. The method in brief:
as §1

In experiment [5] the target is T5, 380 human recombinant protein kinases (Homo sapiens, UniProt Q00535).
T5 construct: purchased Eurofins (Celle Lévescault)
T5 sequence (Q00535 whole entry): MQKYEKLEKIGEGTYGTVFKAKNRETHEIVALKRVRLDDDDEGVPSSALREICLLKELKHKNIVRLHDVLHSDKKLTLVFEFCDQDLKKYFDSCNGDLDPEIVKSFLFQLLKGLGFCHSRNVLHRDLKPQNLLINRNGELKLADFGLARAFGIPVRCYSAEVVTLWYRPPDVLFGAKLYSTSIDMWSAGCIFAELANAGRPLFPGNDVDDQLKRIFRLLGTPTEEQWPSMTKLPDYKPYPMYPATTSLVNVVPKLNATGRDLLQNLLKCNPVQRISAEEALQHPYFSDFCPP
Particulars: read-out: Inhibition rate; for inhibition at 0.01 µM: 10 nM; for inhibition at 0.1 µM: 100 nM; for inhibition at 1 µM: 1000 nM. The method in brief:
as §1

Experiment [6] deals with T6, 380 human recombinant protein kinases (Homo sapiens, UniProt P41743).
T6 construct: purchased Eurofins (Celle Lévescault)
T6 sequence (P41743 1-596): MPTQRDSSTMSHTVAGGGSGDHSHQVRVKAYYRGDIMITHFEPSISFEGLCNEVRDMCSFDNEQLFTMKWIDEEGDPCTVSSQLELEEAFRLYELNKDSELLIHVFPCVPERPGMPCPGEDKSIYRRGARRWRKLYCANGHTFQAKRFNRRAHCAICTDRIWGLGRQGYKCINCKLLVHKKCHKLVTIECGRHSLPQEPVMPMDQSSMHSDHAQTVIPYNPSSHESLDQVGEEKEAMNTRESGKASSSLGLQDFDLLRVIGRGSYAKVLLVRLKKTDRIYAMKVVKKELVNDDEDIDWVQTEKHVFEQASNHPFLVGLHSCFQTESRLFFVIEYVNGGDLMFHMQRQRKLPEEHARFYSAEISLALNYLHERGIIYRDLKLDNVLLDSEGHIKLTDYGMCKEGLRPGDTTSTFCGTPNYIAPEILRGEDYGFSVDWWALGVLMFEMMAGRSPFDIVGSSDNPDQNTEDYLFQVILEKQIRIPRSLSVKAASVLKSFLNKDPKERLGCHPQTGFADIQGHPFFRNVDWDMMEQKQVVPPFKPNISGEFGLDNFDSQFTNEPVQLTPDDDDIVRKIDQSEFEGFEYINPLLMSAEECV
The conditions noted are these: PKCι(h), read-out: Inhibition rate. The method in brief: as §1

Read-outs that look alike come from different tables or passages of the source.

`C=CC(=O)Nc1cc(-c2cc(-c3cc4c([nH]3)CCNC4=O)ccn2)ccc1OC(F)(F)F` [compound 11]: the inhibition at 0.01 µM in experiment [1] (10 nM) was 1%; in experiment [2] (10 nM) it was -7%; in experiment [3] (10 nM) it was -7%; in experiment [4] (10 nM) it was 4%; in experiment [5] (CDK5/p25(h)), -6%; in experiment [5] (CDK5/p35(h)), -7%. For the same compound, the inhibition at 0.01 µM in experiment [6] (10 nM) worked out at 0%. For the same compound, the inhibition at 0.1 µM in experiment [1] (100 nM) is -13%; in experiment [2] (100 nM) it was 29%; in experiment [3] (100 nM), -5%; in experiment [4] (100 nM), 19%; in experiment [5] (CDK5/p25(h)), 2%; in experiment [5] (CDK5/p35(h)) it was -6%. Further, the inhibition at 0.1 µM in experiment [6] (100 nM) is 5%. Moreover, the inhibition at 1 µM in experiment [1] (1000 nM) was -7%; in experiment [2] (1000 nM) it was 74%; in experiment [3] (1000 nM), -5%; in experiment [4] (1000 nM) it was 27%; in experiment [5] (CDK5/p25(h)) it was -2%; in experiment [5] (CDK5/p35(h)) it was 5%. For the same compound, the inhibition at 1 µM in experiment [6] (1000 nM) was 8%.
